# Measurements: US9670194B2 (Calitor Sciences, LLC, priority 2013, dated 2017)
# What was measured:
# [1] = Pharmacokinetics after intravenous and oral administration in rats; assay type: in vivo, rat; conditions: for clearance (CL) / AUC(0-t) / half-life / Vd: iv dosing, dose 1 mg/kg; for bioavailability / AUC(0-t) / half-life / Vd: rat, plasma; for bioavailability: iv dose 1 mg/kg, oral dose generally 5 or 10 mg/kg; for Vd: read-out: Vss
# [2] = molecular target: PI3K (p110β/p85α) (h) (Homo sapiens (Human), UniProt P42338); experiment: PI3K (p110β/p85α) (h) non-radioactive HTRF kinase assay; assay type: biochemical
# [3] = molecular target: PI3K (p110α/p85α) (h) (Homo sapiens (Human), UniProt P42336); experiment: PI3K (p110α/p85α) (h) non-radioactive HTRF kinase assay; assay type: biochemical
# [4] = Compound stability in human liver microsomes; assay type: in vitro ADME; conditions: for half-life at 5 μM: human liver microsomes 0.5 mg protein/mL, compound 5 μM, NADPH 1.0 mM, 37° C.; for CLint scaled at 5 μM: human liver microsomes, in vivo CLint extrapolated
# [5] = molecular target: PI3K (p120γ) (h) (Homo sapiens (Human), UniProt P48736); experiment: PI3K (p120γ) (h) non-radioactive HTRF kinase assay; assay type: biochemical
# [6] = molecular target: PI3K (p110δ/p85α) (h) (Homo sapiens (Human), UniProt O00329); experiment: PI3K (p110δ/p85α) (h) non-radioactive HTRF kinase assay; assay type: biochemical
# [7] = Compound stability in rat liver microsomes; assay type: in vitro ADME; conditions: pH 7.4; for half-life at 5 μM: rat liver microsomes 0.5 mg protein/mL, compound 5 μM, NADPH 1.0 mM, 37° C.; for CLint scaled at 5 μM: rat liver microsomes, in vivo CLint extrapolated
# [8] = Pharmacokinetics after intravenous and oral administration in mice; assay type: in vivo; conditions: Mouse; for CL/F / AUC(0-t) / half-life / Vd: iv dosing, dose 1 mg/kg; for bioavailability / AUC(0-t) / half-life / Vd: plasma; for bioavailability: iv dose 1 mg/kg, oral dose generally 5 or 10 mg/kg; for Vd: read-out: Vss
# [9] = Pharmacokinetics after intravenous and oral administration in dogs; assay type: in vivo; conditions: Dog; for CL/F / AUC(0-t) / half-life / Vd: iv dosing, dose 1 mg/kg; for bioavailability / AUC(0-t) / half-life / Vd: plasma; for bioavailability: iv dose 1 mg/kg, oral dose generally 10 mg/kg; for Vd: read-out: Vss
# [10] = Pharmacokinetics after intravenous and oral administration in monkeys; assay type: in vivo; conditions: Monkey; for CL/F / AUC(0-t) / half-life / Vd: iv dosing, dose 1 mg/kg; for bioavailability / AUC(0-t) / half-life / Vd: plasma; for bioavailability: iv dose 1 mg/kg, oral dose generally 10 mg/kg; for Vd: read-out: Vss
# [11] = system: model of systemic lupus erythematosis; conditions: Nature Medicine, 2005, 11, 933-935; cited from earlier work
# [12] = system: mouse model of rheumatoid arthritis; conditions: Nature Medicine, 2005, 11, 936-943; cited from earlier work
# [13] = system: murine model of asthma; conditions: ovalbumin-induced airway inflammation; FASEB, 2006, 20: 455-465; cited from earlier work
# [14] = molecular target: PI3Kδ (Homo sapiens, UniProt O00329); conditions: Cell, 2006, 125, 733-747; cited from earlier work
# Sequence of PI3K (p110α/p85α) (h) (P42336 whole entry): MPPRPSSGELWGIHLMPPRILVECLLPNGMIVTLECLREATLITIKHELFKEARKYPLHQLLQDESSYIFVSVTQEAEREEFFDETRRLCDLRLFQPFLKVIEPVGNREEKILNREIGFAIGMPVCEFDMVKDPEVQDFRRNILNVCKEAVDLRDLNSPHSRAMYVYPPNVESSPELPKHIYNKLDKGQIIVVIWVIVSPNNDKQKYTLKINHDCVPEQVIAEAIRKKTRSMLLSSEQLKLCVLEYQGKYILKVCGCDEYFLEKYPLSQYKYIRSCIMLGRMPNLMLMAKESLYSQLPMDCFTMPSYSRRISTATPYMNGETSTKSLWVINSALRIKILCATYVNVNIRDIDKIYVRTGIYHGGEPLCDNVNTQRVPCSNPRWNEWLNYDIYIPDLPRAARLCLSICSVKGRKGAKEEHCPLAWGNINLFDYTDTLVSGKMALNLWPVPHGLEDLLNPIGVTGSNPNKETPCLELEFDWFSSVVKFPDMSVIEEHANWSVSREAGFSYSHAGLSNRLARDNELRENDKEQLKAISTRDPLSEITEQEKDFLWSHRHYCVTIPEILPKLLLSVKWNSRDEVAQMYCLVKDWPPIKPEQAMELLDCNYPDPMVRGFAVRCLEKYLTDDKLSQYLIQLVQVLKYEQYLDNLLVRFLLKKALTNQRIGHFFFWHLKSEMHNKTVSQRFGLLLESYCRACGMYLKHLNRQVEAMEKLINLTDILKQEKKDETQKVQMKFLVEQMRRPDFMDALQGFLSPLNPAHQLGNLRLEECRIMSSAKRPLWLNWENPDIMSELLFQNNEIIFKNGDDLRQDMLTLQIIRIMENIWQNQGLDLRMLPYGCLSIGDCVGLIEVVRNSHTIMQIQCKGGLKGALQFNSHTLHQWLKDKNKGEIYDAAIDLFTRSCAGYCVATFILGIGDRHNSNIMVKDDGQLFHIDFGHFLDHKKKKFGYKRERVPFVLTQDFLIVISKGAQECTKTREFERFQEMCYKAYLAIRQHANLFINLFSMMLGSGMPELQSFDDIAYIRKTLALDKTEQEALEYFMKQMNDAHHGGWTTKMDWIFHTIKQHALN
# Sequence of PI3K (p110α/p85α) (h) (P27986 whole entry partner): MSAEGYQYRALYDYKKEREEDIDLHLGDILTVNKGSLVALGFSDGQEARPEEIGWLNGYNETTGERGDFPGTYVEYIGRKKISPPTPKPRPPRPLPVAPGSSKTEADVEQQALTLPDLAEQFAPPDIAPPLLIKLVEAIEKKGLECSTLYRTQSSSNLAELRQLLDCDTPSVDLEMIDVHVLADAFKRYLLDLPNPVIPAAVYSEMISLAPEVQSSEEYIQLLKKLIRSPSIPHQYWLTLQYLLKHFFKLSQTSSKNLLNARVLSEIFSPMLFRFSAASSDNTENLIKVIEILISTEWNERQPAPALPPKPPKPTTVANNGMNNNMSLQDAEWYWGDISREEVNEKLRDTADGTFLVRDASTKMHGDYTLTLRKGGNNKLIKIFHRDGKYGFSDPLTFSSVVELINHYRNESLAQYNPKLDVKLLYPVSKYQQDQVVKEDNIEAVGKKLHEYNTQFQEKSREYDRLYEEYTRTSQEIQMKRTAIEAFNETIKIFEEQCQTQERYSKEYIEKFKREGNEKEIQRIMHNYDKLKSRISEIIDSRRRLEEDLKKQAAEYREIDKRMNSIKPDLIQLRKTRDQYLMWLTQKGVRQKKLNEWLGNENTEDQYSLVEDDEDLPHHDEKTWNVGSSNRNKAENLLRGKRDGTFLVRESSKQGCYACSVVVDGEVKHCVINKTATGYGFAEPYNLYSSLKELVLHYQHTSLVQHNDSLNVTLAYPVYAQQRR
# Sequence of PI3K (p110δ/p85α) (h) (O00329 whole entry): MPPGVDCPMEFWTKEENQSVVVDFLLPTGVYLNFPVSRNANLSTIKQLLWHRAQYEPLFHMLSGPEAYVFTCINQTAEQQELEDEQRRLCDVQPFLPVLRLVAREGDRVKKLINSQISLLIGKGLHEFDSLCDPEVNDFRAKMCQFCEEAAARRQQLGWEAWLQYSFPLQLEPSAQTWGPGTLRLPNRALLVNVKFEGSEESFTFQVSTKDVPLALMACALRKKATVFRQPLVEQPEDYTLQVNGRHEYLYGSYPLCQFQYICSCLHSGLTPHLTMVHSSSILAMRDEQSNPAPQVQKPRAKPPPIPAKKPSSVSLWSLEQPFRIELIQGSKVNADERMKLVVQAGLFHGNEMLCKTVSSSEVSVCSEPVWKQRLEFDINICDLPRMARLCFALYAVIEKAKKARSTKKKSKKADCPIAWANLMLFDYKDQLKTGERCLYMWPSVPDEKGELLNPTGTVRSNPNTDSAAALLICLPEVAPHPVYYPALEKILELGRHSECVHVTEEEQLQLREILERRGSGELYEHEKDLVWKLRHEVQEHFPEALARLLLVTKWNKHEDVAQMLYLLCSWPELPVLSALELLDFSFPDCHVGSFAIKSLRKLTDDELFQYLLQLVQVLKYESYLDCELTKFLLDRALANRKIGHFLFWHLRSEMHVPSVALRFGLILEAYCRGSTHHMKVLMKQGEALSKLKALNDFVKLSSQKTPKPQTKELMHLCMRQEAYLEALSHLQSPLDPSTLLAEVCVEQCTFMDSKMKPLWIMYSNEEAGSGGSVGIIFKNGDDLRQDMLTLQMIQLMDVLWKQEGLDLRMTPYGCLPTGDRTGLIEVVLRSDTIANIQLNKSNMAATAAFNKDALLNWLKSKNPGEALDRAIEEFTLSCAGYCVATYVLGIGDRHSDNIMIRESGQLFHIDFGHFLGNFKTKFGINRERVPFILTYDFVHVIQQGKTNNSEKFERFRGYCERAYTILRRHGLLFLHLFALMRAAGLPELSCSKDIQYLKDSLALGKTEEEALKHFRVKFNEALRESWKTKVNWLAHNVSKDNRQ
# Sequence of PI3K (p110δ/p85α) (h) (P27986 whole entry partner): as the sequence (P27986 whole entry partner) above
# Sequence of PI3K (p110β/p85α) (h) (P42338 whole entry): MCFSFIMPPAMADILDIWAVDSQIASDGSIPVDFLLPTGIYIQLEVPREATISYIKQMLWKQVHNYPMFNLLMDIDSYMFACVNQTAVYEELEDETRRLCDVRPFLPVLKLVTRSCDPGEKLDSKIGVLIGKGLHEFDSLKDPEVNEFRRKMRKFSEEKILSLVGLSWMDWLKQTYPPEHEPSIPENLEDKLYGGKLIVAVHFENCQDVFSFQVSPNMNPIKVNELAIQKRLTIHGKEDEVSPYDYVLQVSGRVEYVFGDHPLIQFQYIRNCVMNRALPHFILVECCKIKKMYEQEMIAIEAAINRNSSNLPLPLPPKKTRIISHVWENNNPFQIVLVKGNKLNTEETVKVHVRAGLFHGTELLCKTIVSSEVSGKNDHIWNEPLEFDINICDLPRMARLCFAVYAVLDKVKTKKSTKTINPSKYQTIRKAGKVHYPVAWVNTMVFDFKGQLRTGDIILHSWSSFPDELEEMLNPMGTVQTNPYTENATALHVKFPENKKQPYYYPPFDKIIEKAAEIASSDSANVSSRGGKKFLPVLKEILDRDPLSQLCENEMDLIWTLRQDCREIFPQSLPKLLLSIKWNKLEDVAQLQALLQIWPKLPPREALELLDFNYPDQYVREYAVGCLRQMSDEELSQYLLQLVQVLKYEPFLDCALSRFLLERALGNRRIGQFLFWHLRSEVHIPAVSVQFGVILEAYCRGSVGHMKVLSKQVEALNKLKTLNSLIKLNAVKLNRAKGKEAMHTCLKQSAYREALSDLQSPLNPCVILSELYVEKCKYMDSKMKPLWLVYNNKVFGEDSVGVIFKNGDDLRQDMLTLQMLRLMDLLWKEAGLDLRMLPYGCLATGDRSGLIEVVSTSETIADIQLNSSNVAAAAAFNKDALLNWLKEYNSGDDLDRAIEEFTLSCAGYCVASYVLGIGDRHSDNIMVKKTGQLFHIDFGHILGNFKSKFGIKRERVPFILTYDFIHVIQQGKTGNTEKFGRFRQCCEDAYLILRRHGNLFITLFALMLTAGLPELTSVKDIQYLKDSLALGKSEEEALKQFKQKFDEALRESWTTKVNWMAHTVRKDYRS
# Sequence of PI3K (p110β/p85α) (h) (P27986 whole entry partner): as the sequence (P27986 whole entry partner) above
# Sequence of PI3K (p120γ) (h) (P48736 whole entry): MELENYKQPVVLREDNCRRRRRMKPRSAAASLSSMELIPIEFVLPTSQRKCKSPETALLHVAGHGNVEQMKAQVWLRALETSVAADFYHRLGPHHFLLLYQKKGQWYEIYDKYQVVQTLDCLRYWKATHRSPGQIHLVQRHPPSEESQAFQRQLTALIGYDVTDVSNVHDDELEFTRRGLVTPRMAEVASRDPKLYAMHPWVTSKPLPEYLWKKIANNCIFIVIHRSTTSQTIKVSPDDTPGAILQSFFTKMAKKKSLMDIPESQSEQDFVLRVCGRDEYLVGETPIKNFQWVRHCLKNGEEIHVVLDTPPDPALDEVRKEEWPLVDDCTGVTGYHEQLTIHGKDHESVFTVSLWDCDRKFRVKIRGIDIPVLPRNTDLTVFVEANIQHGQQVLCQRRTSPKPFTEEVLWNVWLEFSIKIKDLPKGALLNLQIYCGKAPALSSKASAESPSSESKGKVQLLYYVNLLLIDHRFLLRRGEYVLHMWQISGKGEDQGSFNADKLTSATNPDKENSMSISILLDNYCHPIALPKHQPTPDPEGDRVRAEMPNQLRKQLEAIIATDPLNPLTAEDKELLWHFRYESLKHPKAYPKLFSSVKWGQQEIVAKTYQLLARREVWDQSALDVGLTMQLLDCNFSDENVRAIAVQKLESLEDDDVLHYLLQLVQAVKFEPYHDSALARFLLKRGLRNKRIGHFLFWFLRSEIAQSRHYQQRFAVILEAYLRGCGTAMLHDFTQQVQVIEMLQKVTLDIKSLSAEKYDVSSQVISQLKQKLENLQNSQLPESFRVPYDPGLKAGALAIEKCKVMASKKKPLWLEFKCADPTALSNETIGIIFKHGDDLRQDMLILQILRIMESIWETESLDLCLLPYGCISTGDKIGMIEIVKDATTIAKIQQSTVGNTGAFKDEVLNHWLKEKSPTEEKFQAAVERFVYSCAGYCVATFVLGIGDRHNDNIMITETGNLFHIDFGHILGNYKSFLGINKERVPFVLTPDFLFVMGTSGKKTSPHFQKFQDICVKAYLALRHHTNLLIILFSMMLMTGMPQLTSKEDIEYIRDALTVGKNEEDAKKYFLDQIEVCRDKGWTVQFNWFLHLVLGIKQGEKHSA
SMILES,clearance (CL) [1] [mL/min/kg],bioavailability [1] [%],AUC(0-t) [1] [ng·h/mL],half-life [1] [min],Vd [1] [L/kg],IC50 [2] [nM],IC50 [3] [nM],half-life at 5 μM [4] [min],CLint scaled at 5 μM [4] [mL/min/kg],IC50 [5] [nM],IC50 [6] [nM],half-life at 5 μM [7] [min],CLint scaled at 5 μM [7] [mL/min/kg],CL/F [8] [mL/min/kg],bioavailability [8] [%],AUC(0-t) [8] [ng·h/mL],half-life [8] [min],Vd [8] [L/kg],CL/F [9] [mL/min/kg],bioavailability [9] [%],further results
"CC[C@H](Nc1ncnc(N)c1-c1nnc(C)o1)c1nc2cccc(Cl)c2c(=O)n1C1CC1 [Ex. 2, (S)-2-(1-((6-amino-5-(5-methyl-1,3,4-oxadiazol-2-yl)pyrimidin-4-yl)amino)-propyl)-5-chloro-3-cyclopropylquinazolin-4(3H)-one]",41.2,63.9,405,75.6,3.93,168,> 3000,32.1,54.1,1930,33,31.4,79.1,,,,,,,,
O=C1NC(=O)/C(=C\c2ccc3nccnc3c2)S1 [AS 605240],,,,,,,,,,,,,,,,,,,,,onset of disease in a model of systemic lupus erythematosis [11]: delay onset of disease; efficacy in a mouse model of rheumatoid arthritis [12]: efficacious
Cc1ccccc1-n1c(Cn2cnc3c(N)ncnc32)nc2cccc(C)c2c1=O [IC87114],,,,,,,,,,,,,,,,,,,,,inflammation and disease in a murine model of asthma [13]: significantly ameliorate inflammation and disease; inhibits PI3Kδ [14]: high nanomolar range (triple digit)

# Second part, led by results:
clearance (CL) [1] [mL/min/kg],bioavailability [1] [%],AUC(0-t) [1] [ng·h/mL],half-life [1] [min],Vd [1] [L/kg],IC50 [2] [nM],IC50 [3] [nM],half-life at 5 μM [4] [min],CLint scaled at 5 μM [4] [mL/min/kg],IC50 [5] [nM],IC50 [6] [nM],half-life at 5 μM [7] [min],CLint scaled at 5 μM [7] [mL/min/kg],CL/F [8] [mL/min/kg],bioavailability [8] [%],AUC(0-t) [8] [ng·h/mL],half-life [8] [min],Vd [8] [L/kg],CL/F [9] [mL/min/kg],bioavailability [9] [%],SMILES,further results
28.3,111,596,46.6,1.69,674,> 3000,55.8,31.1,112,8,49.6,50.1,18.8,78.7,883,33.6,0.41,1.83,76.3,"Cc1nnc(-c2c(N)ncnc2N[C@@H](C)c2nc3cccc(Cl)c3c(=O)n2-c2ccccc2)o1 [Ex. 64, (S)-2-(1-((6-amino-5-(5-methyl-1,3,4-oxadiazol-2-yl)pyrimidin-4-yl)amino)ethyl)-5-chloro-3-phenylquinazolin-4(3H)-one]",AUC(0-t) [9]: 10000 ng·h/mL; half-life [9]: 218 min; Vd [9]: 0.48 L/kg; CL/F [10]: 7.17 mL/min/kg; bioavailability [10]: 134%; AUC(0-t) [10]: 2340 ng·h/mL; half-life [10]: 209 min; Vd [10]: 1.4 L/kg
21.5,76.1,726,359,10.7,113,1480,45.5,38.2,258,8,81.1,30.6,255,11,651,88.8,3.8,9.67,34.1,"CC[C@H](Nc1ncnc(N)c1-c1nc(C)no1)c1nc2cccc(Cl)c2c(=O)n1C1CC1 [Ex. 4, (S)-2-(1-((6-amino-5-(3-methyl-1,2,4-oxadiazol-5-yl)pyrimidin-4-yl)amino)-propyl)-5-chloro-3-cyclopropylquinazolin-4(3H)-one]",AUC(0-t) [9]: 1580 ng·h/mL; half-life [9]: 684 min; Vd [9]: 6.01 L/kg; CL/F [10]: 11.6 mL/min/kg; bioavailability [10]: 55.4%; AUC(0-t) [10]: 1520 ng·h/mL; half-life [10]: 185 min; Vd [10]: 1.92 L/kg
129,88.7,260,54.2,9.09,154,1010,33.1,52.5,37,2,32.6,76.1,31.7,33.3,527,47.4,0.84,6.17,24.8,"Cc1noc(-c2c(N)ncnc2N[C@@H](C)c2nc3cccc(Cl)c3c(=O)n2-c2ccccc2)n1 [Ex. 65, (S)-2-(1-((6-amino-5-(3-methyl-1,2,4-oxadiazol-5-yl)pyrimidin-4-yl)amino)ethyl)-5-chloro-3-phenylquinazolin-4(3H)-one]",AUC(0-t) [9]: 2690 ng·h/mL; half-life [9]: 636 min; Vd [9]: 4.25 L/kg; CL/F [10]: 15.3 mL/min/kg; bioavailability [10]: 10%; AUC(0-t) [10]: 1060 ng·h/mL; half-life [10]: 403 min; Vd [10]: 4.2 L/kg
51.8,75.5,323,57,4.09,502,2750,69.3,25.1,893,11,15.6,159,,,,,,,,"CC[C@H](Nc1ncnc(N)c1-c1nc(C)no1)c1nc2cccc(F)c2c(=O)n1-c1ccccc1 [Ex. 39, (S)-2-(1-((6-amino-5-(3-methyl-1,2,4-oxadiazol-5-yl)pyrimidin-4-yl)amino)-propyl)-5-fluoro-3-phenylquinazolin-4(3H)-one]",
